PubChem BioAssay AID624113 (National Center for Advancing Translational Sciences (NCATS), 2012)

Test system: mouse plasma stability, percent remaining
Test: qHTS Assay for Inhibitors of Bacillus subtilis Sfp phosphopantetheinyl transferase (PPTase): Mouse Plasma Stability
Conditions: stronger effect = higher value
Source text: The covalent attachment of a phosphopantetheinyl (4'-PP) arm to a variety of synthases and other proteins is a key posttranslational protein modification. The 4'-PP is installed on the proteins post-translationally from coenzyme A (CoA) on a conserved serine residue by action of phosphopantetheinyl transferase (PPTase) enzymes. Phosphopantetheinylation is essential for synthase activity, and removal of the PPTase gene precludes natural product synthesis in microorganisms, or in the case of fatty acid biosynthesis, renders the organism unviable. PPTase enzymes belong to a distinct structural superfamily. Within bacteria, these enzymes are grouped into two classes based upon primary structure, the AcpS-Type and Sfp-Type PPTases.
Sfp-type PPTases, corresponding to an activator of surfactin production in Bacillus subtilis, are responsible for modifying type I polyketide and nonribosomal peptide synthases of prokaryotes. Sfp-type PPTases are responsible for the activation of a variety of pathogen-associated virulence factors. […]
5 uM of compound is incubated with mouse liver microsome; the reference compounds are verapamil and warfarin. Compounds are incubated and samples are analyzed with LC-MS/MS.

percent remaining: 100%
SMILES: COc1ccnc(NC(=S)N2CCN(c3ncc(C(F)(F)F)cc3Cl)CC2)c1
